Experimental findings from patent US20220288004A1, “TREATMENT AND PREVENTION OF AGING RELATED-DISEASE AND/OR AGING BY THE INHIBITION OF SPHINGOLIPIDS” (ECOLE POLYTECHNIQUE FEDERALE DE LAUSANNE (EPFL), priority 2019, published 2022) are described below.

“Also recorded” adds a separate entry of the source.

What all share (type): in vivo, mouse
Experiment [1] has as its system aged C57Bl/6JRj mice. In words: Body composition, muscle mass and TA muscle histology in aged mice. The method, then: To examine whether a causal relationship could underlie the correlation between SphPC1 and muscle mass and function, it was tested whether inhibition of sphingolipid de novo biosynthesis pathway could protect against age-related muscle dysfunction. Aged (18-month-old) C57Bl/6JRj mice were treated for 5 months on chow diet with myriocin, a specific inhibitor of SPT, the first and rate-limiting enzyme of the sphingolipid de novo synthesis pathway, and whose expression in skeletal muscle was negatively correlated with muscular fitness in BXDs.
Animals. Young (2-month-old) and aged (18-month-old) C57Bl/6JRj mice were purchased from Janvier Labs. EchoMRI measuring the fat and lean body mass, were measured before and after the treatment. The dose of myriocin was 0.4 mg/kg/3 times a week. Myriocin (Enzo Life Sciences, Farmingdale, N.Y.) was first dissolved in DMSO which was then mixed with PBS so that each mouse received 1.5 μL DMSO per injection. Animals were fed on a standard chow diet. All animals were housed in micro-isolator cages in a room illuminated from 7:00 AM to 7:00 PM with ad libitum access to diet and water. All the animal experiments are authorized by animal license 2890.1 and 3341 in Canton of Vaud, Switzerland.
Histology. TA muscles were harvested from anesthetized mice, and immediately embedded in Thermo Scientific™ Shandon™ Cryomatrix™ and frozen in isopentane, cooled in liquid nitrogen, for 1 min before being transferred to dry ice and stored at −80° C. 8 μm cryosections were incubated in 4% PFA for 15 min, washed three times for 10 min with PBS, incubated for antigen retrieval in pH 6.0 citrate buffer for 10 min at 95° C. […] Microscopy images of fluorescence from muscle fibers were analyzed using the ImageJ software. Centralized nuclei percent, minimal Feret diameter and cross-sectional area in TA muscles were determined using the ImageJ software quantification of laminin, dystrophin, and DAPI-stained muscle images from VS120-S6-W slides scanner (Olympus). […] The mean cross-sectional area of muscle fibers was calculated as the average cross-sectional area of 2,000 fibers per from sample. 7-8 mouse samples per condition were used for histological quantification of donor mice. The eMyHC quantification is expressed as proportion of eMyHC positive signal over total TA cross sectional area. Following MuSC injection in CTX injected recipient mice, inflammation representing the regenerative stage of muscle was quantified by ImageJ software as proportion of inflammatory area over total area of the TA muscle cross section. The PAX7-positive cells were quantified as the average number of cells per field of more than 30 randomly chosen fields from a mouse TA. For each quantification, 3 or more mice were used.

The subject of experiment [2] is mdx mice. As to the kind of experiment: Myriocin treatment of mdx mice (Duchenne muscular dystrophy model). The method, then: Next the activity of sphingolipid synthesis was inhibited in a mouse model of Duchenne muscular dystrophy. Mdx, a dystrophin deficient mouse model, was treated with myriocin (0.4 mg/kg/3 times a week intraperitoneally) for 2 months. […] Furthermore, after downhill running, plasma levels of creatine kinase (CK) were lower in myriocin treated mice compared to controls (FIG. 8f).
Endurance running test. The exercise regimen on a treadmill commenced at a speed of 9 cm/s. As the mice were aged, an inclination of 0 degrees was used. Mice were considered to be exhausted, and removed from the treadmill if they received 7 or more shocks (0.2 mA) per minute for two consecutive minutes. The distance traveled and time before exhaustion were registered as maximal running distance and time.
Grip strength. Muscle strength was assessed by grip strength test. The grip strength of each mouse was measured on a pulldown grid assembly connected to a grip strength meter (Columbus Instruments). The mouse was drawn along a straight line parallel to the grip, providing peak force. The experiment was repeated three times, and the highest value was included in the analysis.
Rotarod test. The rotarod test measures muscle strength, coordination, and endurance. Mice were left undisturbed in the room for 30 min. The speed of the rotating cylinder (rotarod) increased from 0 to 40 rpm in 5 min. Each mouse had 3 trials per day for 3 consecutive days. The latency and speed the mouse reached it passive rotation or fall from the rotor was recorded, and the latency and speed of the best trial of the second day is presented.

In experiment [3] the test system is aged C57Bl/6JRj mice. As to the kind of experiment: Ad libitum locomotion during 10 min in aged mice. The conditions noted are these: myriocin 0.4 mg/kg i.p. 3 times per week, 5 months. The protocol:
FIG. 9. Sphingolipid depletion protects against frailty phenotypes. (a) Distance moved in 10 mins. (b) Average velocity during 10 minutes of observation. (c) Glucose tolerance test. (d) Time exploring familiar and novel objects. (e) Recognition index. Aged (18-month-old) C57BL/6JRj mice were treated with intraperitoneal injections of myriocin (MYR) for 5 months @ 0.4 mg/kg/3 times per week.
Human frailty syndrome is characterized by weakness, decreased walking speed, exhaustion, weight loss, and low physical activity. […] Frailty predicts falls in older people. […] In object recognition test, myriocin treated mice spent more exploring both the familiar object and novel object as compared to their DMSO treated counterparts (FIG. 9d). Although this could be partly attributable to the higher physical activity of myriocin treated mice, the treated mice were more interested in the novel than familiar object as compared to untreated mice.

Experiment [4] deals with aged C57Bl/6JRj mice. In words: Novel object recognition in aged mice. The protocol: Novel Object Recognition. The novel object recognition task is used to assess recognition memory of mice. It is based on the natural tendency of rodents to explore a novel object by comparison to a familiar one. A habituation phase is realized to familiarize animals to the arena context. 24 hours later, during the acquisition phase (learning phase), two identical objects are placed in the arena and presented to the mouse. During the retention phase (3 hours following the acquisition phase), one of the two familiar objects is replaced by a novel one. Measures of duration and number of exploration for each object are realized, during both acquisition and retention phases, and a Recognition Index is calculated.

The mark [5] stands for this setting: myriocin 0.4 mg/kg 3 times a week intraperitoneally, 2 months.

With `CCCCCCC(=O)CCCCCCC=CCC(O)C(O)C(N)(CO)C(=O)O` (stereo not drawn) [myriocin, 2-Amino-3,4-dihydroxy-2-(hydroxymethyl)-14-oxoicos-6-enoic acid], the lean body mass entry in experiment [1] (myriocin 0.4 mg/kg i.p. 3 times per week, 5 months, EchoMRI before and after treatment) is “delayed age-dependent decline; also recorded: higher”. Further, in experiment [1] (myriocin 5 months vs DMSO), the “cross-sectional area of muscle fibers (TA)” value is “larger” and the “number of centralized nuclei in TA muscle” value was “reduced number”. In addition, the “gastrocnemius and TA mass” value in experiment [1] (myriocin 5 months vs DMSO treated controls) was “greater; also recorded: higher”. In addition, the “plasma levels of creatine kinase (CK)” value in experiment [2] (after downhill running, myriocin 2 months vs controls) is listed as “lower”. In addition, in experiment [2] (setting [5]), the grip strength result is recorded as “improved”, the “performance in rotarod test” value was “improved performance” and the “performance in uphill running test” value is “improved performance”. Besides, in experiment [3], the “ad libitum walking speed (average velocity during 10 minutes)” value is “increased” and the “distance travelled ad libitum during 10 min” value is on record as “longer”. Also, the recognition index entry in experiment [4] (myriocin 5 months vs DMSO) was “higher”. In addition, in experiment [4] (myriocin 5 months vs DMSO treated counterparts), the “time exploring novel object relative to familiar object” value is reported as “more”.
